# Measured values reported in patent publication US6602512B1, “Composition for the prevention of muscle fatique and skeletal muscle adaptation of strenuous exercise” (Sigma-Tau HealthScience S.p.A., priority 1999, dated 2003).
# What was measured:
# mice = assay: Muscle fatigue test (swimming endurance); format: in vivo; settings: for swimming endurance time (in words): daily oral 200 mg/kg over 6 days, versus controls; for Swimming time: daily oral doses of 200 mg/kg of each compound over 6 days preceding the test
# Description: The method described by Zheng (Zheng R. L., Acta Pharmacol. Sinica, 14, 47, 1993) was used for this test in order to observe whether the administration of L-carnitine or creatinol-phosphate or of the two products in combination might increase […] in treated animals as compared to controls.
# In this test, different groups of mice received daily oral doses of 200 mg/kg of L-carnitine or 200 mg/kg of creatinol-phosphate or of the two compounds in combination over the 6-day period preceding the test. The animals were immersed in a tank full of water and swimming endurance time was measured.
# gastrocnemius muscle = assay: Forced muscular exercise test (treadmill), MDA content in gastrocnemius muscle; format: in vivo; settings: rats, daily oral 200 mg/kg of each compound for 6 days; for MDA content in muscle, After 5 min: gastrocnemius muscle 5 min after end of treadmill test; for MDA content in muscle, After 30 min: gastrocnemius muscle 30 min after end of treadmill test
# Description: As is known, forced muscular exercise can produce structural and inflammatory-type lesions at muscle fibre level, due to the increased oxygen consumption and to production of reactive oxygen species (ROS). A marker of the level of ROS-induced lipid peroxidation of the muscle may be obtained from its malondialdehyde (MDA) concentration. For this test, the method described by Husain was used (Husain K., Pathophysiology, 4, 69, 1997) as modified by Li (Li J.X., Acta Pharmacologica Sinica, 20, 126, 1999) which consists essentially in examining rats on a treadmill at controlled belt speed and preset inclination. In this way the rats were made to run at a belt speed of 28 m/min and an inclination of approximately 5°. Exhaustion of the control animals subjected to the exercise occurred after approximately 90 minutes.
# The test was performed on rats receiving daily oral treament over the 6-day period preceding the test with 200 mg/kg of L-carnitine or with 200 mg/kg of creatinol-phosphate or with the two compounds in combination.
# Five minutes and 30 minutes, respectively, after the end of the test, the animals were sacrificed and samples of gastrocnemius muscle were taken for measurement of the malondialdehyde (MDA) content using the reaction with thiobarbituric acid according to the method described by Ohkawa (Ohkawa H. Angl. Biochem 95, 351, 1979).
Compound,swimming endurance time (in words) (mice),Swimming time (mice),"MDA content in muscle, After 5 min (gastrocnemius muscle)","MDA content in muscle, After 30 min (gastrocnemius muscle)"
"CN(CCOP(=O)(O)O)C(=N)N [Creatinol-phosphate, 1-(2-hydroxyethyl)-1-methylguanidine-O-phosphate]",increased swimming endurance time,124 ± 11 min,206 ± 16 nmol/g,209 ± 12 nmol/g
C[N+](C)(C)C[C@H](O)CC(=O)[O-] [L-carnitine],increased swimming endurance time,118 ± 14 min,218 ± 11 nmol/g,216 ± 14 nmol/g
